Experimental data: ChEMBL document CHEMBL1137325, “Multitarget-directed drug design strategy: a novel molecule designed to block epidermal growth factor receptor (EGFR) and to exert proapoptotic effects” (J Med Chem, 2006)
Active and inactive are the calls of the source. The calls are words filed in the database; no cut-off is given here.

What was measured:
[1] = molecular target: Epidermal growth factor receptor (Homo sapiens, UniProt P00533); assay: Inhibition of EGFR tyrosine kinase activity
A-431 [2] = assay: Antiproliferative activity against human A431 cells after 72 hrs by MTT assay; conditions: A-431, 72 h
A-431 [3] = assay: Induction of necrosis in human A431 cells measured as increase of LDH release; type: functional, cell-based
A-431 [4] = assay: Induction of apoptosis in human A431 cells measured as increase in DNA fragmentation; type: functional, cell-based
A-431 [5] = assay: Reversibility of antiproliferative activity against human A431 cells after recovery for 68 hrs by MTT assay; conditions: A-431, 68 h
A-431 [6] = assay: Reversibility of antiproliferative activity against human A431 cells after recovery for 68 hrs in presence of 50 uM DTT by MTT assay; conditions: A-431, 68 h
A-431 [7] = assay: Reversibility of antiproliferative activity against human A431 cells after recovery for 68 hrs in presence of 100 uM DTT by MTT assay; conditions: A-431, 68 h

Sequence of Epidermal growth factor receptor (P00533 whole entry): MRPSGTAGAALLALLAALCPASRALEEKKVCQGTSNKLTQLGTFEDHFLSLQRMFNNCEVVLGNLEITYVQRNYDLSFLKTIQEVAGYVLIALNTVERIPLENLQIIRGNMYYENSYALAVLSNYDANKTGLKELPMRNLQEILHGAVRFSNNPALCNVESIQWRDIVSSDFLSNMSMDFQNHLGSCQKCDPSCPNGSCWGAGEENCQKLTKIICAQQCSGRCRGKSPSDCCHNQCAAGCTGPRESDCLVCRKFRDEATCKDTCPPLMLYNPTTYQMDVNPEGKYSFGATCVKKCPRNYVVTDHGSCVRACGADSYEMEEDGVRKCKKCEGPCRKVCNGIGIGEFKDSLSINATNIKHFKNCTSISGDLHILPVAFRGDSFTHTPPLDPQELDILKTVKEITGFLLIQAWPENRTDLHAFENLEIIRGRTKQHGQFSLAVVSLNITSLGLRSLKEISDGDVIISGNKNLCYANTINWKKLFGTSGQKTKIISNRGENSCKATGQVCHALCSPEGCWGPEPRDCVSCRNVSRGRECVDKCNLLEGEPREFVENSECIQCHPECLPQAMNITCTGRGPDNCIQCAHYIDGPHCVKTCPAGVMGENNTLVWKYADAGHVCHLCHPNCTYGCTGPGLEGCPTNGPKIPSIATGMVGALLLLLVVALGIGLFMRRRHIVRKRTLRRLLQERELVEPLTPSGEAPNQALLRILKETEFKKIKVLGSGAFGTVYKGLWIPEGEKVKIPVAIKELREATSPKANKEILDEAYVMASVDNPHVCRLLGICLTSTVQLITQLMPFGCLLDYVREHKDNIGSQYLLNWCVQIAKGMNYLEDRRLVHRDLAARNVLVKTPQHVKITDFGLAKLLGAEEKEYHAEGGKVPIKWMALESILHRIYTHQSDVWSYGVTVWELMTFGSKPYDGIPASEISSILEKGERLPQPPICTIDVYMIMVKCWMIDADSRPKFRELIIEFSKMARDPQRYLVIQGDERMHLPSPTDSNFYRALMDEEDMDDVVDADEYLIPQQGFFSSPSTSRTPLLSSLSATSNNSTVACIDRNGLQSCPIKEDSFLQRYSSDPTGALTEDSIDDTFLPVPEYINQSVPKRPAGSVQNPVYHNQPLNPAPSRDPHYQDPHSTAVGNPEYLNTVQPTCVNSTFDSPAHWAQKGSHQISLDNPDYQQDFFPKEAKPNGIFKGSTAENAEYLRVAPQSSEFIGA

Row | SMILES | IC50 [1] [µM] | IC50 (A-431 [2]) [µM] | Activity (A-431 [3]) | Activity (A-431 [4]) | IC50 (A-431 [5]) [µM] | IC50 (A-431 [6]) [µM] | IC50 (A-431 [7]) [µM]
1 | O=C(CC1CCSS1)Nc1ccc2ncnc(Nc3cccc(Br)c3)c2c1 (stereo not drawn) | > 3 | 13.7 |  |  |  |  | 
2 | COc1cc2ncnc(Nc3cccc(Br)c3)c2cc1OC |  |  | inactive |  |  |  | 
3 | O=C(CCCCC1CCSS1)Nc1ccc2ncnc(Nc3cccc(Br)c3)c2c1 (stereo not drawn) | > 3 | 21.6 |  |  |  |  | 
4 | O=C(Nc1ccc2ncnc(Nc3cccc(Br)c3)c2c1)C1CCSS1 (stereo not drawn) | 0.06 | 7.9 | inactive | Dose-dependent effect | 9.23 | 22.4 | 28.1
5 | C=CC(=O)Nc1ccc2ncnc(Nc3cccc(Br)c3)c2c1 |  |  | inactive |  |  |  | 
